Reference: PMC8508710, “Biochemical Characterization of 13-Lipoxygenases of Arabidopsis thaliana” (International Journal of Molecular Sciences, 2021)
Several values for one entry are separate records, joined by “and”; a condition that tells them apart may be missing. Equal values may be shown once. Values belong to the molecule of their own block, whether it stands above or below them.

Experiments:
[1] = biological target: T1, LOX4 (Arabidopsis thaliana, UniProt Q9FNX8); assay: LOX4 activity, oxygen electrode (polarography); type: biochemical; set-up: made in house; host or cells: E. coli Nico21(DE3), pET15b; details: for Relative Activity (%) LOX4: 100 µM metal salt, LeA 30 µM in 20 mM HEPES pH 8.0, oxygen consumption vs control; for Protective effect on LOX4 against 12-OPDA: 1.3 mM GSH, 140 µM 12-OPDA
T1 sequence (Q9FNX8 71-926): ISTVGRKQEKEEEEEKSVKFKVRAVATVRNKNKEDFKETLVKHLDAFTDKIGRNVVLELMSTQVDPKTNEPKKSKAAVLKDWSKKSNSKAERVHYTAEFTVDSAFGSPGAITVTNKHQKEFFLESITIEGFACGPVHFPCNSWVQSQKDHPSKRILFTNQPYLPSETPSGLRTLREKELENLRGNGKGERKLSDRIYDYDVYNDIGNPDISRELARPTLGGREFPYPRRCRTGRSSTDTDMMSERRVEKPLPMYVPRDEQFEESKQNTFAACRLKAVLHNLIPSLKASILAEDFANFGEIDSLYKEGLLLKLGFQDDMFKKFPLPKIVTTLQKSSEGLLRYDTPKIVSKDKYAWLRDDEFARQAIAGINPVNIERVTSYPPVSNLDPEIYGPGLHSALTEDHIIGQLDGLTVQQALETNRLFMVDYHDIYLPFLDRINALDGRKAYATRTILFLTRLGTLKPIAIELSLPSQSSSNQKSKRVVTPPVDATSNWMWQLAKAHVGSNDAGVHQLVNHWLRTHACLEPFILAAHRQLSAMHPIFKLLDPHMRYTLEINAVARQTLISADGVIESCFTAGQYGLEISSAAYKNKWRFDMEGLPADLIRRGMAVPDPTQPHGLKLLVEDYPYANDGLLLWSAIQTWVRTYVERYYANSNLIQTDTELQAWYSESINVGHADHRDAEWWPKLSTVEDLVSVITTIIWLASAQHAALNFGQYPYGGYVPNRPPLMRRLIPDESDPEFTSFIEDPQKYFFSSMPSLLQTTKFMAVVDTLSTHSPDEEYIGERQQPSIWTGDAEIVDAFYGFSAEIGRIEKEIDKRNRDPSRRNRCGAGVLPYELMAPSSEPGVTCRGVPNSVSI

[2] = biological target: T2, LOX2 (Arabidopsis thaliana, UniProt P38418); assay: LOX2 activity, oxygen electrode (polarography); type: biochemical; set-up: made in house; host or cells: E. coli Nico21(DE3), pET15b; details: 100 µM metal salt, LeA 30 µM in 20 mM HEPES pH 8.0, oxygen consumption vs control
T2 sequence (P38418 71-896): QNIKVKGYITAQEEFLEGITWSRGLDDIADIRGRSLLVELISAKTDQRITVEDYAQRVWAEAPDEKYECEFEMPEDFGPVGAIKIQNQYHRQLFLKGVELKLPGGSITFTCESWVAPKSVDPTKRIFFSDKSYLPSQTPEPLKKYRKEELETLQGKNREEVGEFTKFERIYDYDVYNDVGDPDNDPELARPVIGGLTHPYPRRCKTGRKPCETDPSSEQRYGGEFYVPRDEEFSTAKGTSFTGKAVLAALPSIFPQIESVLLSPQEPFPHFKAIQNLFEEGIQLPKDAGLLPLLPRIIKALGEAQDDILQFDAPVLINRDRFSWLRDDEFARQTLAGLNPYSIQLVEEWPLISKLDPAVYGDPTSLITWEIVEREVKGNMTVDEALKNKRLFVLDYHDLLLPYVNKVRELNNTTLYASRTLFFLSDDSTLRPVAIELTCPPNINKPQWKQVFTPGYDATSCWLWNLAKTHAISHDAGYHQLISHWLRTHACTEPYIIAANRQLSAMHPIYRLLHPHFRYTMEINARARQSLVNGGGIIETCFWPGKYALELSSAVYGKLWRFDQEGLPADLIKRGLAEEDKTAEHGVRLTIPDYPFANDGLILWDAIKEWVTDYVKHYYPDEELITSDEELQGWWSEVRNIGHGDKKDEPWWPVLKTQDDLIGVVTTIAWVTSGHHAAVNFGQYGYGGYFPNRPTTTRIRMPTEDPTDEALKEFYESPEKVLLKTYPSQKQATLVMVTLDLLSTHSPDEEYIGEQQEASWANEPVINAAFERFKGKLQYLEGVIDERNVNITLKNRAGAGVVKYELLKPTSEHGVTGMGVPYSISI

[3] = biological target: T3, LOX3 (Arabidopsis thaliana, UniProt Q9LNR3); assay: LOX3 activity, oxygen electrode (polarography); type: biochemical; set-up: made in house; host or cells: E. coli Nico21(DE3), pET15b; details: 100 µM metal salt, LeA 30 µM in 20 mM HEPES pH 8.0, oxygen consumption vs control
T3 sequence (Q9LNR3 71-919): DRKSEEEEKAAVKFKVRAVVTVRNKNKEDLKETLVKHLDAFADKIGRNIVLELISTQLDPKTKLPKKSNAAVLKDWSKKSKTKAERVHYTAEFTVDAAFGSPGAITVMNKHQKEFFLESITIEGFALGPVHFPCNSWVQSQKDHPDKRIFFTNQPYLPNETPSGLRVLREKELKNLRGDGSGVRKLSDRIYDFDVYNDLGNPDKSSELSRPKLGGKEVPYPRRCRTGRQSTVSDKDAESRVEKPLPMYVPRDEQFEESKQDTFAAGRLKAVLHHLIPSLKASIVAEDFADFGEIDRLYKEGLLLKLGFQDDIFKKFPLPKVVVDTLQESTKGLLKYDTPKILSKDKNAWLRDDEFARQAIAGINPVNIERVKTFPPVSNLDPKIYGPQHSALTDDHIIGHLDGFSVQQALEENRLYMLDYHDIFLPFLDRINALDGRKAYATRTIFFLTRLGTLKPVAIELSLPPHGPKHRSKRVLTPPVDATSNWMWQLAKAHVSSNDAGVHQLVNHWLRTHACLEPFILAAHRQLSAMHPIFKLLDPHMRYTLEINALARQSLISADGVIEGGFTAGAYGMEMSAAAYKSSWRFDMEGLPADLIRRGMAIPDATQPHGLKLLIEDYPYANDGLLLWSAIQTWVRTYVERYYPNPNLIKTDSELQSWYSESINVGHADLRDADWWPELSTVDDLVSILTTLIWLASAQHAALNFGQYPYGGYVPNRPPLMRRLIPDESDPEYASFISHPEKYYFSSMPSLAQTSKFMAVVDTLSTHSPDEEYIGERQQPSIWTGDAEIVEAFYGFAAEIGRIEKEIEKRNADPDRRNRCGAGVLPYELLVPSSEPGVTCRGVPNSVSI

[4] = biological target: T4, LOX6 (Arabidopsis thaliana, UniProt Q9CAG3); assay: LOX6 activity, oxygen electrode (polarography); type: biochemical; set-up: made in house; host or cells: E. coli Nico21(DE3), pEXP5-NT/TOPO; details: 100 µM metal salt, LeA 30 µM in 20 mM HEPES pH 8.0, oxygen consumption vs control
T4 sequence (Q9CAG3 41-917): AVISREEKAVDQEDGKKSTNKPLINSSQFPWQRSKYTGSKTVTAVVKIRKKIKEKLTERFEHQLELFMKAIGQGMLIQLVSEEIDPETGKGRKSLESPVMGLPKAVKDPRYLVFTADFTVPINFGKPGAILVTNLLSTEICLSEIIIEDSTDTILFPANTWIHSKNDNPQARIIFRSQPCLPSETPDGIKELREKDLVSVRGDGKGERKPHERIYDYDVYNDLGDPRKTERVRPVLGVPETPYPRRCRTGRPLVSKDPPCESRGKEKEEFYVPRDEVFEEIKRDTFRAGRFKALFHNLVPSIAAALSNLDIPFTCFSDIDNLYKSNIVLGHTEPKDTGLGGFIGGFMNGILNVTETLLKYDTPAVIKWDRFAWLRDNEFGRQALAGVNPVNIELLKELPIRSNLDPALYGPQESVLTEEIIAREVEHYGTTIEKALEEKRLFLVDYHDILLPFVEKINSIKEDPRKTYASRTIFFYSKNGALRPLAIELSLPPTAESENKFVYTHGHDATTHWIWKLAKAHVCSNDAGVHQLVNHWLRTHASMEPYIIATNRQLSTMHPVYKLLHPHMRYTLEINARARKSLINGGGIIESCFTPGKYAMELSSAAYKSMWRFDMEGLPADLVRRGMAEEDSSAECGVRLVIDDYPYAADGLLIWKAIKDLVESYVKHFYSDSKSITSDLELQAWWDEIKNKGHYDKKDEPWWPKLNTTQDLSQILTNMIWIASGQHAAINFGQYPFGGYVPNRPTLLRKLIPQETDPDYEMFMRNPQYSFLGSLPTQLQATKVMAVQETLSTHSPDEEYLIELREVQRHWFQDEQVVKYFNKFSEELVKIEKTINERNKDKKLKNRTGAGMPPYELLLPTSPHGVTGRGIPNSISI

[5] = biological target: T1, LOX4; assay: LOX4 activity, spectrophotometric (conjugated diene formation at 234 nm); details: for Relative Activity (%) LOX4: substrate specificity, 31 µM PUFA, 4 µg 13-LOX, LeA = 100%
[6] = biological target: T3, LOX3; assay: LOX3 activity, spectrophotometric (conjugated diene formation at 234 nm); details: for Relative Activity (%) LOX3: substrate specificity, 31 µM PUFA, 4 µg 13-LOX, LeA = 100%
[7] = biological target: T4, LOX6; assay: LOX6 activity, spectrophotometric (conjugated diene formation at 234 nm); details: for Relative Activity (%) LOX6: substrate specificity, 31 µM PUFA, 4 µg 13-LOX, LeA = 100%
[8] = biological target: T2, LOX2; assay: LOX2 activity, spectrophotometric (conjugated diene formation at 234 nm); details: for Relative Activity (%) LOX2: substrate specificity, 31 µM PUFA, 4 µg 13-LOX, LeA = 100%
[9] = biological target: T2, LOX2; set-up: made in house; host or cells: E. coli Nico21(DE3), pET15b; method as in PMID 18949503; details: cited from earlier work
[10] = read-out: Km app, substrate LeA, Michaelis Menten fit, apparent
[11] = enzyme 0.225 µg/µL incubated 10 min 30 °C with 280 µM chemical, 4.8 µM LeA, 50 mM Tris-HCl pH 7.2, vs solvent control
[12] = read-out: Inhibition after pre-incubation with PUFA

Protective effect on LOX4 against 12-OPDA ([1]; 12.2 µg LOX4): ~ 7.1%
Protective effect on LOX4 against 12-OPDA ([1]; doubled LOX4 concentration): ~ 11.7%
SMILES: N[C@@H](CCC(=O)N[C@@H](CS)C(=O)NCC(=O)O)C(=O)O [GSH]

inhibition at 118 µM [5, 12]: > 50%
Relative Activity (%) LOX4 ([5]; 50 mM Tris-HCl pH 7.2): 11 ± 1%
inhibition at 118 µM [6, 12]: > 50%
Relative Activity (%) LOX3 ([6]; 50 mM Tris-HCl pH 7.2): 12 ± 1%
inhibition at 29 µM [7, 12]: > 50%
Relative Activity (%) LOX6 ([7]; 50 mM Tris-HCl pH 7.2): 17 ± 1%
Relative Activity (%) LOX2 ([8]; 50 mM Tris-HCl pH 7.2): 79% and 79 ± 7%
SMILES: CCCCC/C=C\C/C=C\CCCCCCCC(=O)O [LA, linoleic acid]
LOX2 activity with PUFA (relative) [9]: ~ 40%

Relative Activity (%) LOX4 ([5]; 50 mM Tris-HCl pH 7.2): 8 ± 1%
Relative Activity (%) LOX3 ([6]; 50 mM Tris-HCl pH 7.2): 7 ± 1%
Relative Activity (%) LOX6 ([7]; 50 mM Tris-HCl pH 7.2): 31 ± 3%
Relative Activity (%) LOX2 ([8]; 50 mM Tris-HCl pH 7.2): 56 ± 3%
SMILES: CC/C=C\C/C=C\C/C=C\C/C=C\C/C=C\C/C=C\CCC(=O)O [DHA, docosahexaenoic acid]

Further lines, the molecule ahead of its results:

SMILES: [Cl][Cu][Cl] [CuCl2]
Relative Activity (%) LOX4 [1]: no activity
Relative Activity (%) LOX4 ([1]; listed as Cu^2+): abolished
Relative Activity (%) LOX2 [2]: 50 ± 20%
Relative Activity (%) LOX2 ([2]; listed as Cu^2+): strongly decreased
Relative Activity (%) LOX3 [3]: no activity
Relative Activity (%) LOX3 ([3]; listed as Cu^2+): abolished
Relative Activity (%) LOX6 [4]: no activity
Relative Activity (%) LOX6 ([4]; listed as Cu^2+): abolished

SMILES: CC/C=C\C/C=C\C/C=C\CCCCCCCC(=O)O [LeA, α-linolenic acid]
Maximum activity in pH profile ([5]; LeA 9.8 µM, optimal pH 7.2): 62.3 ± 0.4 nmol·s^−1·mg^−1
Km [5, 10]: 5.8 µM
Vmax app ([5]; substrate LeA, Michaelis Menten fit, apparent): 128 ± 18 nmol/s/mg and 128 nmol/s/mg
Relative Activity (%) LOX4 ([5]; 50 mM Tris-HCl pH 7.2): 100%
Maximum activity in pH profile ([6]; LeA 9.8 µM, optimal pH): 50.5±2.8 nmol·s^−1·mg^−1
Relative Activity (%) LOX3 ([6]; 50 mM Tris-HCl pH 7.2): 100%
Maximum activity in pH profile ([7]; LeA 9.8 µM, optimal pH): 1.6±0.1 nmol·s^−1·mg^−1
Km [7, 10]: 1.2 ± 0.4 µM
Relative Activity (%) LOX6 ([7]; 50 mM Tris-HCl pH 7.2): 100%
Maximum activity in pH profile ([8]; LeA 9.8 µM, optimal pH 6.6): 3.9 ± 0.4 nmol·s^−1·mg^−1
Km ([8]; read-out: Km app, substrate LeA, Michaelis Menten fit, apparent (purity and iron load not considered)): 26.3 ± 2 µM
Relative Activity (%) LOX2 ([8]; 50 mM Tris-HCl pH 7.2): 100%

SMILES: CCN1C(=O)C=CC1=O [NEM, N-ethylmaleimide]
Photometry Relative activity (%) LOX4 [5, 11]: 3 ± 2%
Photometry Relative activity (%) LOX3 [6, 11]: 29 ± 10%
Photometry Relative activity (%) LOX6 [7, 11]: 13 ± 2%
Photometry Relative activity (%) LOX2 [8, 11]: 35 ± 10%

SMILES: CCCCC/C=C\C/C=C\C/C=C\C/C=C\CCCC(=O)O [ARA, arachidonic acid]
Relative Activity (%) LOX4 ([5]; 50 mM Tris-HCl pH 7.2): 4 ± 1%
Relative Activity (%) LOX3 ([6]; 50 mM Tris-HCl pH 7.2): 5 ± 1%
Relative Activity (%) LOX6 ([7]; 50 mM Tris-HCl pH 7.2): 8 ± 3%
LOX2 activity with PUFA (relative) [9]: ~ 15%
Relative Activity (%) LOX2 ([8]; 50 mM Tris-HCl pH 7.2): 50% and 50 ± 4%
